Experimental data from patent US9101627B2, “Pharmaceutical compositions containing bradykinin antagonists and hyaluronic acid, and uses thereof” (ISTITUTO LUSO FARMACO D'ITALIA S.P.A., priority 2007, dated 2015).

What was measured:
[1] = system: experimental model of osteoarthritis induced by intra-articular injection of sodium monoiodoacetate (MIA); test: MIA-induced osteoarthritis model, incapacitance test (weight imbalance between paws); type: in vivo; details: rat; for time of maximal inhibitory effect after administration / reduction of the pain caused by osteoarthritis: 3 μg/25 μl i.a., single compound; for reduction of the pain caused by osteoarthritis: 7 days after MIA; for inhibitory effect at higher dose: 10 μg/25 μl i.a. versus 3 μg/25 μl; for duration of antinociceptive effect: single compound i.a.
Experimental: The activity of MEN16132, icatibant and hyaluronic acid was measured in an experimental model of osteoarthritis induced by intra-articular injection of sodium monoiodoacetate (MIA) which inhibits glycolysis in the chondrocytes, thus causing damage and death to those cells with consequent degeneration of the joint surface, in a very similar way to human osteoarthritis.
MIA (1 mg/25 μl) was injected into the intra-articular space of the right knee of the rat, while 25 μl of saline was administered to the left knee as internal control.
The administration of MIA causes pain, difficulty of walking and inability to bear weight on the paw corresponding to the treated knee; the weight of the body therefore falls mainly on the left paw, to an extent directly proportional to the pain perceived. This effect persists for many weeks. The imbalance in weight on the two weight-bearing paws, evaluated in a non-invasive way with the incapacitance test, measures the pain resulting from the joint damage (osteoarthritis) induced by MIA.
The purpose of this test was to evaluate the protective effect of bradykinin B2 receptor antagonists against experimental osteoarthritis, and to establish the effect of co-administration of hyaluronic acid.
Seven days after the treatment with MIA, the compounds under study were injected, and the test was repeated at various times to measure the painkilling effect and its duration.

[2] = system: patients with symptomatic OA of the knee; details: 58 patients, single intra-articular administration 90 μg/1 ml; cited from earlier work
[3] = system: patients with OA of the knee; details: intra-articular, 3×500 μg injections one week apart; cited from earlier work

## Cc1cc(C)c2cccc(OCc3c(Cl)ccc(S(=O)(=O)NC4(C(=O)N5CCN(C(=O)[C@@H](N)CCC[N+](C)(C)C)CC5)CCOCC4)c3Cl)c2n1 [MEN16132, (4-(S)-Amino-5-(4-{4-[2,4-dichloro-3-(2,4-dimethyl-quinoline-8-yloxymethyl)-benzenesulphonylamino]-tetrahydro-pyran-4-carbonyl}-piperazin-1-yl)-5-oxo-pentyl]-trimethyl-ammonium]
[1]
  time of maximal inhibitory effect after administration: 3 days
  reduction of the pain caused by osteoarthritis: 55%
  inhibitory effect at higher dose: No further significant increase in inhibitory effect
  duration of antinociceptive effect: lasted for over a week

## NC(N)=NCCC[C@@H](N)C(=O)N[C@@H](CCCN=C(N)N)C(=O)N1CCC[C@H]1C(=O)N1C[C@H](O)C[C@H]1C(=O)NCC(=O)N[C@@H](Cc1cccs1)C(=O)N[C@@H](CO)C(=O)N1Cc2ccccc2C[C@@H]1C(=O)N1[C@H](C(=O)N[C@@H](CCCN=C(N)N)C(=O)O)C[C@@H]2CCCC[C@@H]21 [icatibant, H-D-Arg-Arg-Pro-Hyp-Gly-Thi-Ser-D-Tic-Oic-Arg-OH]
[1]
  time of maximal inhibitory effect after administration: 3 days
  reduction of the pain caused by osteoarthritis: 40%
  inhibitory effect at higher dose: No further significant increase in inhibitory effect
  duration of antinociceptive effect: lasted for over a week
[2]
  intensity of pain in the knee versus placebo: reduced the intensity of pain in the knee to a greater extent than the placebo
[3]
  duration of analgesic response after the treatment: up to 3 months
  side effects: negligible or no side effects
